Laboratory results from paper PMC10141620 (Viruses, 2023).
pIC50: −log10 of the molar value. Where “and” joins values, the source holds several entries; their conditions need not be identical. Equal entries are not always repeated.

Key:
Format in all cases: cell-based
[1] = tested on: SARS-CoV-2 USA-WA1/2020 D614G pseudovirus
[2] = tested on: SARS-CoV-2 Brazil (Gamma: K417T/E484K/N501Y) pseudovirus
[3] = tested on: SARS-CoV-2 mutant (D614G) and variants of concern (VOC) pseudoviruses; settings: read-out: IC50, range over all variant pseudoviruses

Row | SMILES | pIC50 [1] | pIC50 [2] | pIC50 [3]
1 | Cc1ccc2nc3s/c(=C/c4coc(-c5ccc(Cl)c(C(=O)O)c5)c4)c(=O)n3c2c1 [NBCoV35] | 6.58 and 6.71 | 6.53 and 6.30 | 
2 | O=C(O)c1cc(-c2ccc(/C=c3\sc4nc(=O)c5c6c(sc5n4c3=O)CCCC6)o2)ccc1Cl [NBCoV36] |  |  | 5.93 to 6.74 and 6.48 to 6.89
3 | Cc1cc(C)c2nc3s/c(=C\c4ccc(-c5ccc(Cl)c(C(=O)O)c5)o4)c(=O)n3c2c1 [NBCoV37] | 6.51 and 6.80 |  | 6.57 to 7.09 and 6.51 to 7.37
4 | Cc1cc2nc3s/c(=C/c4ccc(-c5cccc(C(=O)O)c5)o4)c(=O)n3c2cc1C [NBCoV63] | 7.37 and 7.39 | 7.34 and 7.11 | 7.02 to 7.47 and 6.98 to 7.59
